How the values were obtained:
[1] = Hot block gel tests with polyester resin (curing); details: 0.75 % Wt used
Description: The unsaturated polyester resins cured by the present process comprises those polyesters described in U.S. Pat. No. 4,129,613, the disclosure thereof being incorporated by reference herein. The following Table IV is typical of the improved results obtained with the present compounds.
HOT BLOCK GEL TESTS WITH POLYESTER RESIN
USING VARIOUS GEM-DIPEROXYESTERS
Resin: USS Chemical MR-941 (Isophthalic)
Block Temp.: 180 ± 1° F. (82° C.)
Peroxide Concentration Corrected for Purity, […]

[2] = Half-lives of gem-diperoxyesters (10 hour half-life temperature); assay type: physicochemical; details: 0.2M in benzene
Description: HALF-LIFES OF VARIOUS GEM-DIPEROXYESTERS

[3] = Suspension polymerization of vinyl chloride monomer in pop bottles with gem-diperoxyester initiators
Description: A series of polymerizations was performed to illustrate the improved efficiencies of the new compounds as initiators of vinyl chloride monomer. 2,2-Bis(2-ethyl hexanoylperoxy)butane (KP-A) is one compound that can be made by the procedures of the above referenced Japanese patents and was included as typical of the prior art.
The data in Table III were obtained in the following manner:
The suspension polymerizations were performed in pop bottles using uninhibited monomer. Duplicate bottles were analyzed at each polymerization time interval. The following table lists some general information about the polymerization procedure used.
After the desired amounts of reactants were added to the pop bottles, they were capped, the contents almost melted, and the bottles placed in a rotating constant temperature bath at the temperatures and for the times shown in Table III. The bottles were frozen before venting-off excess monomer. The polymer was filtered, washed, and dried. All initiator concentrations shown have been corrected for purity.

[4] = SET 1, block temp. 180 ± 1° F. (82° C.)
[5] = SET 1, 7 hrs. at 22° C., 0.10 % Wt. used
[6] = SET 2, 7 hrs. at 40° C., 4.01 × 10^-4 moles initiator/100g VCM
[7] = SET 3, 6 hrs. at 50° C., 2.50 × 10^-4 moles initiator/100g VCM
[8] = SET 2, block temp. 180 ± 1° F. (82° C.)
[9] = SET 1, 7 hrs. at 22° C., 0.20 % Wt. used
[10] = SET 3, 6 hrs. at 50° C., 1.50 × 10^-4 moles initiator/100g VCM
[11] = SET 4, 5.5 hrs. at 55° C., 1.25 × 10^-4 moles initiator/100g VCM
[12] = SET 4, 5.5 hrs. at 55° C., 1.75 × 10^-4 moles initiator/100g VCM
[13] = SET 5, 5 hrs. at 60° C., 1.25 × 10^-4 moles initiator/100g VCM
[14] = SET 5, 5 hrs. at 60° C., 1.75 × 10^-4 moles initiator/100g VCM

Row | Molecule | Peak Temp (exotherm) [1, 4] | 10 Hour Half-Life Temperature [2] | % Conversion [3, 5] | % Conversion [3, 6] | % Conversion [3, 7] | Peak Temp (exotherm) [1, 8] | % Conversion [3, 9] | % Conversion [3, 10] | % Conversion [3, 11] | % Conversion [3, 12] | % Conversion [3, 13] | % Conversion [3, 14]
1 | 3,3-bis(neodecanoylperoxy)pentane [KP-C] | 225 °F. | 23.3 °C | 27.8% | 63.1% | 38.0% | – | – | – | – | – | – | –
2 | CCC(CC)C(=O)OOC(CC)(CC)OOC(=O)C(CC)CC [KP-F, 3,3-Bis(2-Ethyl Butanoylperoxy)Pentane] | – | 40 °C | – | 88.3% | 92.5% | 271 °F. | 4.3% | 82.5% | 74.1% | 85.9% | 67.8% | 81.8%
3 | CCC(CC)(OOC(=O)C(C)(C)C)OOC(=O)C(C)(C)C [KP-B, 3,3-bis(pivaloylperoxy)pentane] | 221 °F. | 24 °C | 52.2% | 90.4% | 51.8% | – | – | – | – | – | – | –
4 | CCCCC(CC)C(=O)OOC(C)(CC(C)(C)O)OOC(=O)C(CC)CCCC (centres unmarked) [KP-H, 2,2-bis(2-ethylhexanoylperoxy)-4-hydroxy-4-methylpentane] | – | – | – | – | – | – | – | – | – | 63.9% | – | 58.1%
5 | CCC(CC)C(=O)OOC(C)(CC(C)(C)O)OOC(=O)C(CC)CC [KP-I, 2,2-bis(2-ethylbutanoylperoxy)-4-hydroxy-4-methylpentane] | – | – | – | – | – | – | – | – | – | 66.1% | – | 65.4%
6 | CC(C)(C)C1CCC(OC(=O)OOC(=O)OC2CCC(C(C)(C)C)CC2)CC1 (centres unmarked) [DBCPD, Di4-t-butyl cyclohexylperoxydicarbonate, reference compound] | 244 °F. | – | – | – | – | 260 °F. | – | – | – | – | – | –
7 | CCCCC(CC)C(=O)OOC(CC)(CC)OOC(=O)C(CC)CCCC (centres unmarked) [KP-D, 3,3-bis(2-ethylhexanoylperoxy)pentane] | 249 °F. | 39.7 °C | – | 75.4% | 89.1% | 260 °F. | 10.7% | 79.1% | 69.6% | 84.2% | 70.5% | 83.8%
8 | CCCCC(CC)C(=O)OOC(C)(CC)OOC(=O)C(CC)CCCC (centres unmarked) [KP-A, 2,2-Bis(2-Ethyl Hexanoylperoxy)Butane, reference compound] | – | 43.7 °C | – | 45.9% | 75.85% | 275 °F. | 5.0% | – | 53.4% | 72.1% | 67.8% | 83.2%
9 | CCC(CC)(OOC(=O)C(C)C)OOC(=O)C(C)C [KP-E, 3,3-bis(2-methylpropionylperoxy)pentane] | – | – | – | 39.6% | 74.4% | – | 0.5% | – | – | 76.1% | 71.5% | 86.7%
10 | CCCC(C)C(=O)OOC(CC)(CC)OOC(=O)C(C)CCC (centres unmarked) [KP-G, 3,3-bis(2-methylpentanoylperoxy)pentane] | – | – | – | 67.3% | 88.5% | – | 1.6% | – | 72.8% | 86.2% | 72.6% | 85.9%

Reference: patent US4370459A, “Polymerizing unsaturated monomers with gem-diperoxyester catalyst” (priority 1980, dated 1983)
